# Experimental data reported in US10260043B2, “Human extensively self-renewing erythroblasts (ESRE)” (UNIVERSITY OF ROCHESTER, priority 2013, dated 2019).
# Tested on: murine ESREs
# Assay: murine ESRE self-renewal supported by glucocorticoid
# Format: cell-based, mouse
# Settings: as effectively as 10^−6M dexamethasone; preliminary studies
# Text: Other reagents necessary for improving the efficiency with which self-renewing cultures can be derived from human ESCs can be tested. This includes alternate steroids, such as fluticasone proprionate, an extremely potent glucocorticoid agent; our preliminary studies of murine ESREs indicate that doses of fluticasone as low as 10^−9M support erythroblast self-renewal as effectively as 10^−6M dexamethasone. Various lipid additives, including Excyte (Millipore) and Human LDL (Stem Cell Technology) can also be test for to optimizing support human erythroblast self-renewal.
substance,measurement,value
fluticasone proprionate,dose that supports erythroblast self-renewal,≤ 10^−9 M
